Data from patent US11014908B2, “Chemical compounds” (Pfizer Inc., priority 2018, dated 2021).

Tests used:
[1] = molecular target: T1, purified sickle cell hemoglobin (HbS) (Homo sapiens, UniProt P68871+P69905, E7V); test: Binding affinity to purified HbS by Surface Plasmon Resonance (SPR); details: crosslinked biotinylated HbS, 1:1 binding model
T1 construct: HbS was obtained from the blood of homozygous S/S patients; from tissue; host or cells: red blood cells of homozygous S/S patients
Experimental: Binding Affinity, Kd (uM)
The binding affinity for compounds to purified sickle cell hemoglobin (HbS) was determined using Surface Plasmon Resonance (SPR). Patient Sickle Cell blood was obtained from Boston Children's Hospital in accordance with Institutional Review Board protocols. HbS was obtained from the blood of homozygous S/S patients, and purified using the method described in: Antonini and Brunori, Hemoglobin and Myoglobin in their Reactions with Ligands. Amsterdam, London, North-Holland Publishing Company, 1971. Whole blood was separated into red blood cell and plasma components by centrifugation, after which the plasma was decanted and discarded. Packed red blood cells were washed with normal saline (0.9% NaCl) and then lysed by 2:1 dilution with cold deionized water. The hemolysate was centrifuged to remove cellular debris, and further purified with the addition of Drabkin's Buffer (2.8 M potassium phosphate), and centrifugation with Celite®. Organic phosphates (2,3-BPG) were removed via gel filtration with Sephadex® G-25. HbS and wild-type hemoglobin, hemoglobin A (HbA), were separated by […], using diethylaminoethyl (DEAE)-Sepharose® fast flow, and eluted using a pH gradient from pH 8.5-pH 7.5. Purity of the resulting HbS and HbA was determined by native gel electrophoresis and HbS fractions used further.
To stabilize the tetrameric structure of hemoglobin, HbS was crosslinked between the beta subunits (Lys82-Lys82) using bis(3,5-dibromosalicyl) fumarate, as described in: Shibayama N. et al, J Am Chem Soc 2014, 136, 13, 5097-5105 and Shibayama N. et al, Biochemistry 1991, 39, 33, 8158-8165). Crosslinked HbS was subsequently biotynylated and captured on a custom made Streptavidin sensor to achieve protein density of 4000 to 5000 resonance units (RUs) on the surface. Compound binding to HbS using SPR was tested on Sierra Sensors MASS-1 instrument. The running buffer contained 100 mM Potassium Phosphate, pH 7.5, 0.005% Tween-20, 1 mM ethylenediaminetetraacetic acid (EDTA), 0.1 mg/mL bovine serum albumin with 1% DMSO. Compound samples were injected at a flow rate of 30 μL/min for 2 minutes association and at least 5 minutes of dissociation time. A 2- or 3-fold dilution series containing at least 4 concentrations were tested for each compound. The dose range was selected based on the activity of the compounds in biochemical assays, when available. Multiple blank injections of running buffer were run before and after each compound series to allow blank subtraction for compound data in the analysis software. Positive controls were run in each experiment to monitor and maintain the activity of HbS on the surface. A DMSO curve was run at the beginning of each data set to apply an excluded volume correction to the data during analysis. The data were processed and analyzed using Sierra Sensors and Scrubber 2.0 software. The binding affinities (dissociation constant Kd) were calculated by fitting the sensorgrams to a 1:1 binding model.

HbS = molecular target: T2, HbS (Homo sapiens, UniProt P68871+P69905, E7V); test: 'R'-'T' assay (conversion of oxy HbS to deoxy HbS under deoxygenating conditions); assay type: biochemical; details: 50% inhibition of HbS 'R'-'T' conversion; 3 uM HbS, <1% O2
T2 construct: HbS was obtained from the blood of homozygous S/S patients; from tissue; host or cells: red blood cells of homozygous S/S patients
Experimental: Conversion from oxy (R, relaxed state) to deoxy (T, tense state) HbS in the presence of compound was performed to determine the ability of compounds to stabilize the oxy (R) state under deoxygenating conditions. The assay run was similar to the ‘Oxygen dissociation assay’ described in Oksenberg et al, Br J Haematology, 2016, 175, 141-153.
Assay ready compound plates were prepared by first preparing a master serial dilution plate from a 30 mM initial compound stock in 100% DMSO. From this master serial dilution plate, 167 nL of the desired compound concentration was delivered to the assay ready plates using acoustical dispensing. Plates were frozen at −20° C. until needed. Purified HbS-O2 (i.e. oxy HbS) was diluted to 3 uM in 100 mM potassium phosphate buffer, pH=7.4. 50 uL of 3 uM stock solution was added to each well of the assay ready plate and mechanically mixed eight times. Following mixing the plates were covered and incubated at room temperature for one hour with moderate shaking. Following incubation, the plates were placed in a deoxygenated environment (<1% O2) for two hours, and the conversion to deoxy HbS monitored as a function of time. Oxygenated and deoxygenated forms of hemoglobin were detected using the absorbance of the Soret peaks at 415 and 430 nm respectively, and absorbance measurements (optical density, OD) were taken at 0, 90 and 120 minutes. Background absorbance for correction was collected at 700 nm.
Data were analyzed by first subtracting baseline absorbance at 700 nm from 415 nm and 430 nm data at each timepoint, and then taking the ratio of 415/430 nm data (Ratio=[(OD415−OD700)/(OD430−OD700)]. The effect at each timepoint was calculated using the ratios from the previous calculation at time 0 and each time point of interest (Effect^time x=Ratio^time x/Ratio^time 0). Percent effect was calculated by comparing the effects of compound versus HbS only with the effects observed by the positive control compound tucaresol (percent effect=[(effect^time x compound−effect^time x HbS)/(effect^time x tucaresol−effect^time x HbS)]×100). Data were reported as the percent effect for a single point. Calculations to determine the concentration of compound for 50% inhibition (IC50 (uM)) of the HbS ‘R’-‘T’ conversion were based on the percent effect at varying compound concentration.

Structure (SMILES) | Kd [1] [nM] | IC50 (HbS) [nM]
COC(=O)c1ccc(-n2cccn2)c([C@H](C)Oc2cc3cc(F)ccc3nc2N)c1 [Example 6, methyl 3-{(1S)-1-[(2-amino-6-fluoroquinolin-3-yl)oxy]ethyl}-4-(1H-pyrazol-1-yl)benzoate] | 35 | 4480
C[C@H](Oc1cc2cc(F)ccc2nc1N)c1ncc(F)cc1-n1cccn1 [Example 33, 6-fluoro-3-{(1S)-1-[5-fluoro-3-(1H-pyrazol-1-yl)pyridin-2-yl]ethoxy}quinolin-2-amine] | 34 | 4300
C[C@H](Oc1cc2cc(F)ccc2nc1N)c1cc(-c2n[nH]c(=O)o2)ccc1-n1cccn1 [Example 5, 5-[3-{(1S)-1-[(2-amino-6-fluoroquinolin-3-yl)oxy]ethyl}-4-(1H-pyrazol-1-yl)phenyl]-1,3,4-oxadiazol-2(3H)-one] | 14 | 4380
C[C@H](Oc1cc2cc(C#N)ccc2nc1N)c1ncc(F)cc1-n1cccn1 [Example 26, 2-amino-3-{(1S)-1-[5-fluoro-3-(1H-pyrazol-1-yl)pyridin-2-yl]ethoxy}quinoline-6-carbonitrile] | 138 | 4910
C[C@H](Oc1cc2cc(F)ccc2nc1N)c1nc(OCCO)ccc1-n1cccn1 [Example 41, 2-{[6-{(1S)-1-[(2-amino-6-fluoroquinolin-3-yl)oxy]ethyl}-5-(1H-pyrazol-1-yl)pyridin-2-yl]oxy}ethanol] | 44 | 3830
C[C@H](Oc1cc2cc(F)ccc2nc1N)c1cc(CCC(=O)O)ccc1-n1cccn1 [Example 16, 3-[3-{(1S)-1-[(2-amino-6-fluoroquinolin-3-yl)oxy]ethyl}-4-(1H-pyrazol-1-yl)phenyl]propanoic Acid] | 188 | 3600
Cc1cc2nc(N)c(O[C@@H](C)c3nc4c(cnn4CCO)cc3-n3cccn3)cc2cn1 [Example 77, 2-[6-{(1S)-1-[(2-amino-7-methyl-1,6-naphthyridin-3-yl)oxy]ethyl}-5-(1H-pyrazol-1-yl)-1H-pyrazolo[3,4-b]pyridin-1-yl]ethanol] | 195 | 6300
C[C@H](Oc1cc2cc(CO)ccc2nc1N)c1nc(O)ccc1-n1cccn1 [Example 49, 6-[(1S)-1-{[2-amino-6-(hydroxymethyl)quinolin-3-yl]oxy}ethyl]-5-(1H-pyrazol-1-yl)pyridin-2-ol] | 178 | 6390
Cc1cc2nc(N)c(O[C@@H](C)c3nc(O)ccc3-n3cccn3)cc2cn1 [Example 46, 6-{(1S)-1-[(2-amino-7-methyl-1,6-naphthyridin-3-yl)oxy]ethyl}-5-(1H-pyrazol-1-yl)pyridin-2-ol] | 102 | 5220
C[C@H](Oc1cc2ncccc2nc1N)c1nc(O)ccc1-n1cccn1 [Example 47, 6-{(1S)-1-[(2-amino-1,5-naphthyridin-3-yl)oxy]ethyl}-5-(1H-pyrazol-1-yl)pyridin-2-ol] | 384 | 6320
C[C@H](Oc1cc2cc(F)cc(F)c2nc1N)c1[nH]c(=O)ccc1-n1cccn1 [Example 53, 6-{(1S)-1-[(2-amino-6,8-difluoroquinolin-3-yl)oxy]ethyl}-5-(1H-pyrazol-1-yl)pyridin-2-ol] | 16 | 4250
C[C@H](Oc1cc2cc(F)ccc2nc1N)c1cc(-c2noc(=O)[nH]2)ccc1-n1cccn1 [Example 17, 3-[3-{(1S)-1-[(2-amino-6-fluoroquinolin-3-yl)oxy]ethyl}-4-(1H-pyrazol-1-yl)phenyl]-1,2,4-oxadiazol-5(4H)-one] | 14 | 5050
C[C@H](Oc1cc2cc(F)cc(F)c2nc1N)c1cc(-c2noc(=O)[nH]2)ccc1-n1cccn1 [Example 80, (S)-3-(3-(1-((2-amino-6,8-difluoroquinolin-3-yl)oxy)ethyl)-4-(1H-pyrazol-1-yl)phenyl)-1,2,4-oxadiazol-5(4H)-one] | 36 | –
C[C@H](Oc1cc2cc(F)ccc2nc1N)c1cc(S(N)(=O)=O)ccc1-n1cccn1 [Example 7, 3-{(1S)-1-[(2-amino-6-fluoroquinolin-3-yl)oxy]ethyl}-4-(1H-pyrazol-1-yl)benzenesulfonamide] | 126 | –

Continued, values first:

Kd [1] [nM] | IC50 (HbS) [nM] | Structure (SMILES)
15 | 6170 | CC(Oc1cc2cc(C(N)=O)c(F)cc2nc1N)c1cc2[nH]ncc2cc1-n1cccn1 (stereo in doubt) [Example 65, 2-amino-7-fluoro-3-{(1R)-1-[5-(1H-pyrazol-1-yl)-1H-indazol-6-yl]ethoxy}quinoline-6-carboxamide]
160 | 7710 | Cc1cc2nc(N)c(O[C@@H](C)c3ncc(F)cc3-n3cccn3)cc2cn1 [Example 36, 3-{(1S)-1-[5-fluoro-3-(1H-pyrazol-1-yl)pyridin-2-yl]ethoxy}-7-methyl-1,6-naphthyridin-2-amine]
20 | 4510 | C[C@H](Oc1cc2cc(F)ccc2nc1N)c1cc2c(cnn2CCO)cc1-n1cccn1 [Example 73, 2-[6-{(1S)-1-[(2-amino-6-fluoroquinolin-3-yl)oxy]ethyl}-5-(1H-pyrazol-1-yl)-1H-indazol-1-yl]ethanol]
220 | 5730 | Cc1nc2cc(-n3cccn3)c([C@H](C)Oc3cc4cc(F)ccc4nc3N)cc2[nH]1 [Example 64, 6-fluoro-3-{(1S)-1-[2-methyl-5-(1H-pyrazol-1-yl)-1H-benzimidazol-6-yl]ethoxy}quinolin-2-amine]
48 | 4610 | C[C@H](Oc1cc2cc(F)ccc2nc1N)c1cc2nn(CC(=O)O)cc2cc1-n1cccn1 [Example 71, [6-{(1S)-1-[(2-amino-6-fluoroquinolin-3-yl)oxy]ethyl}-5-(1H-pyrazol-1-yl)-2H-indazol-2-yl]acetic Acid]
14 | 28900 | C[C@H](Oc1cc2cc(C(N)=O)c(F)cc2nc1N)c1nc2[nH]ncc2cc1-n1cccn1 [Example 76, 2-amino-7-fluoro-3-{(1S)-1-[5-(1H-pyrazol-1-yl)-1H-pyrazolo[3,4-b]pyridin-6-yl]ethoxy}quinoline-6-carboxamide]
67 | 5060 | C[C@H](Oc1cc2cc(Br)ccc2nc1N)c1cc(C(N)=O)ccc1-n1cccn1 (single isomer, unassigned) [Example 3]
43 | 4010 | C[C@H](Oc1cc2cc(F)cc(F)c2nc1N)c1cc(C(=O)O)c(F)cc1-n1cccn1 [Example 23, 5-{(1S)-1-[(2-amino-6,8-difluoroquinolin-3-yl)oxy]ethyl}-2-fluoro-4-(1H-pyrazol-1-yl)benzoic Acid]
40 | – | C[C@H](Oc1cc2cc(C(N)=O)ccc2nc1N)c1nc2[nH]ncc2cc1-n1cccn1 [Example 62, 2-amino-3-{(1S)-1-[5-(1H-pyrazol-1-yl)-1H-pyrazolo[3,4-b]pyridin-6-yl]ethoxy}quinoline-6-carboxamide]
